Each structure is given as a SMILES string. pIC50: −log10 of the molar value. Counter-ions that a name gives are not always drawn. Where only a bound is given, the exact number is not on record here.

For orientation: pIC50 means the IC50 on a negative log10 scale, so that one unit is a factor of ten.

Chain of NLRP3 (Q96P20 whole entry): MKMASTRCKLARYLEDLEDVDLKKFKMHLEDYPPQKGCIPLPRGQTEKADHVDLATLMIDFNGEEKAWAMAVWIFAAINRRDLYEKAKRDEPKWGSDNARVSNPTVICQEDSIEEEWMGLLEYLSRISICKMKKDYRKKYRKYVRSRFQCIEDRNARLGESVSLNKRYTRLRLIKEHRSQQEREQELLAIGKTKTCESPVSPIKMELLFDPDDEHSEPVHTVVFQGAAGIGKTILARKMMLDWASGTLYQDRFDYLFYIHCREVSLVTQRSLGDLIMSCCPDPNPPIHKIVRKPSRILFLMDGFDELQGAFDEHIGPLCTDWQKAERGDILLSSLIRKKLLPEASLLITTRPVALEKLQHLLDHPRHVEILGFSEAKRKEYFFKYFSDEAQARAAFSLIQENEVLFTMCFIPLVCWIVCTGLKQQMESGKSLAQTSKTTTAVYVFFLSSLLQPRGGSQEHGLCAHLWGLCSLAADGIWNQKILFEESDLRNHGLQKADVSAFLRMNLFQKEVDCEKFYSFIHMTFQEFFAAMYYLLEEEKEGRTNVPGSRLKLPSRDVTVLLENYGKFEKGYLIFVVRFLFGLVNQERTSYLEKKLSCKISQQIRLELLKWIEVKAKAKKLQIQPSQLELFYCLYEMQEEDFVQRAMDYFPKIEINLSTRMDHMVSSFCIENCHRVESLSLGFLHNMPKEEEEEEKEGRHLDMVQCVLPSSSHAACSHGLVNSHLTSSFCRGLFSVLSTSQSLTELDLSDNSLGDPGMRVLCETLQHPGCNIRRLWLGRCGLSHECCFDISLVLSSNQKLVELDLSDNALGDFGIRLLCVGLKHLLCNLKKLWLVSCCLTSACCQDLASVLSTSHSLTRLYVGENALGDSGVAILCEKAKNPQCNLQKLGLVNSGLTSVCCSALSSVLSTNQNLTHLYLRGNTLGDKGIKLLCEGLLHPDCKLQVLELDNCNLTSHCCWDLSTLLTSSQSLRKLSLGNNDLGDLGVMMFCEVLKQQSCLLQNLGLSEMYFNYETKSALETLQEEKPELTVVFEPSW

This experiment concerns the target NLRP3 (Homo sapiens, UniProt Q96P20). Description: THP-1 cells pyroptosis assay (LPS + nigericin, resazurin read-out). To be noted: NLRP3 inhibitory activity, 1 μg/ml LPS, 5 μM nigericin. Also noted: Seed THP-1 cells (25,000 cells/well) containing 1.0 μg/ml LPS; host or cells: THP-1 cells. It counts as cell-based. The method, then:
The cells were routinely passaged and grown to confluency (˜10^6 cells/ml). On the day of the experiment, THP-1 cells were harvested and resuspended into RPMI medium (without FBS). The cells were then counted and viability (>90%) checked by Trypan blue (Sigma #T8154). […] To this diluted cell solution was added LPS (Sigma #L4524) to give a 1 μg/ml Final Assay Concentration (FAC). 40 μl of the final preparation was aliquoted into each well of a 96-well plate. The plate thus prepared was used for compound screening. The following method step-by-step assay was followed for compound screening. • 1. […] Incubate for 3 hrs at 37° C., 5% CO2 • 4. Add 5 μl nigericin (Sigma #N7143) (FAC 5 μM) to all wells • 5. Incubate for 1 hr at 37° C., 5% CO2 • 6. At the end of the incubation period, spin plates at 300×g for 3 mins and remove supernatant • 7. Then add 50 μl of resazurin (Sigma #R7017) (FAC 100 μM resazurin in RPMI medium without FBS) and incubate plates for a further 1-2 hrs at 37° C. and 5% CO2 • 8.
In general terms: Alamar Blue is a resazurin reagent that responds to reducing activity.
With `CC(C)c1cc(F)cc2c1C(C(=O)NS(=O)(=O)c1cc(C(C)(C)O)cs1)CC2(C)C` (single isomer, unassigned) [Example 9, 5-Fluoro-N-((4-(2-hydroxypropan-2-yl)thiophen-2-yl)sulfonyl)-7-isopropyl-3,3-dimethyl-2,3-dihydro-1H-indene-1-carboxamide, potassium salt (rotamer P2)], the pIC50 is 5.00 to 5.30.

For `Cc1cc(C(C)(C)O)ccc1S(=O)(=O)NC(=O)C1CC(C)(C)c2cc(F)cc(C(C)C)c21` (stereo not drawn) [Example 1, 5-Fluoro-N-((4-(2-hydroxypropan-2-yl)-2-methylphenyl)sulfonyl)-7-isopropyl-3,3-dimethyl-2,3-dihydro-1H-indene-1-carboxamide], the pIC50 is 5.00 to 5.30.

For `COc1cc(-c2cc(F)cc(C(C)C)c2CCC(=O)NS(=O)(=O)c2ccc(CN(C)C)cc2)ccn1` [Example 4, N-((4-((Dimethylamino)methyl)phenyl)sulfonyl)-3-(4-fluoro-2-isopropyl-6-(2-methoxypyridin-4-yl)phenyl)propanamide, potassium salt], the pIC50 was 5.00 to 5.30.

`COc1cc(-c2cc(F)cc(C(C)C)c2CCC(=O)NS(=O)(=O)c2cc(C(C)(C)O)cs2)ccn1` [Example 5, 3-(4-Fluoro-2-isopropyl-6-(2-methoxypyridin-4-yl)phenyl)-N-((4-(2-hydroxypropan-2-yl)thiophen-2-yl)sulfonyl)propanamide]: the pIC50 was 5.00 to 5.30.

For `CC(C)c1cc(F)cc2c1C(C(=O)NS(=O)(=O)c1cnn(C3CC3)c1)CC2(C)C` (stereo not drawn) [Example 7, N-((1-Cyclopropyl-1H-pyrazol-4-yl)sulfonyl)-5-fluoro-7-isopropyl-3,3-dimethyl-2,3-dihydro-1H-indene-1-carboxamide], the pIC50 was 5.00 to 5.30.

As to `CC(C)c1cc(F)cc2c1C(C(=O)NS(=O)(=O)c1ccn(C(C)C)n1)CC2(C)C` (stereo not drawn) [Example 10, 5-Fluoro-7-isopropyl-N-((1-isopropyl-1H-pyrazol-3-yl)sulfonyl)-3,3-dimethyl-2,3-dihydro-1H-indene-1-carboxamide, potassium salt (rotamer P2)], the pIC50 was 5.00 to 5.30.

On to `CC(C)c1cc(F)cc2c1C(C(=O)NS(=O)(=O)c1cc(C(=O)N(C)C)n(C)n1)CC2(C)C` (stereo not drawn) [Example 11, 3-(N-(5-Fluoro-7-isopropyl-3,3-dimethyl-2,3-dihydro-1H-indene-1-carbonyl)sulfamoyl)-N,N,1-trimethyl-1H-pyrazole-5-carboxamide], for which the pIC50 is 5.00 to 5.30.

For the compound `CC(C)(C)OC(=O)NC/C(=C\F)COc1ccc(S(=O)(=O)NC(=O)Nc2c3c(cc4c2CCC4)CCC3)cc1` [Example 18, tert-Butyl-(3-fluoro-2-((4-(N-((1,2,3,5,6,7-hexahydro-s-indacen-4-yl)carbamoyl)sulfamoyl)phenoxy)methyl)allyl)carbamate, potassium salt], the pIC50 is 5.30 to 6.00.

For the compound `COc1cc(-c2ccc3c(c2NC(=O)N[S+]([O-])c2ccn(C(C)C)n2)CCC3)ccn1` (stereo not drawn) [Example 23, 1-Isopropyl-N-((5-(2-methoxypyridin-4-yl)-2,3-dihydro-1H-inden-4-yl)carbamoyl)-1H-pyrazole-3-sulfinamide], the pIC50 is 5.30 to 6.00.

For the compound `COc1cc(-c2ccc3c(c2CC(=O)NS(=N)(=O)C2CN(C(C)C)C2)CCC3)ccn1` (stereo not drawn) [Example 25, N-(1-Isopropylazetidine-3-sulfonimidoyl)-2-(5-(2-methoxypyridin-4-yl)-2,3-dihydro-1H-inden-4-yl)acetamide], the pIC50 is 5.00 to 5.30.

`CC(C)c1cc(F)cc(C(C)C)c1CC(=O)NS(=O)(=O)c1ccn(C(C)C)n1` [Example 26, 2-(4-Fluoro-2,6-diisopropylphenyl)-N-((1-isopropyl-1H-pyrazol-3-yl)sulfonyl)acetamide]: the pIC50 is 5.30 to 6.00.

For `CC(C)c1cc(F)cc(C(C)C)c1CC(=O)NS(=O)(=O)c1cnc(C(C)(C)O)s1` [Example 27, 2-(4-Fluoro-2,6-diisopropylphenyl)-N-((2-(2-hydroxypropan-2-yl)thiazol-5-yl)sulfonyl)acetamide], the negative logarithm of the IC50 (pIC50) is 5.30 to 6.00.

As to `CC(C)c1cc(F)cc(C(C)C)c1CC(=O)NS(=O)(=O)c1cc(C(C)(C)O)n(C(C)C)n1` [Example 29, 2-(4-Fluoro-2,6-diisopropylphenyl)-N-((5-(2-hydroxypropan-2-yl)-1-isopropyl-1H-pyrazol-3-yl)sulfonyl)acetamide], the pIC50 is 5.00 to 5.30.

Consider `CC(C)c1cc(F)cc(C(C)C)c1CC(=O)NS(=O)(=O)c1ncc(C(C)(C)O)s1` [Example 30, 2-(4-Fluoro-2,6-diisopropylphenyl)-N-((5-(2-hydroxypropan-2-yl)thiazol-2-yl)sulfonyl)acetamide], for which the pIC50 is 5.30 to 6.00.

With `CC(C)c1cc(F)cc(C(C)C)c1CC(=O)NS(=O)(=O)c1cc(C(C)(C)O)n(C)n1` [Example 32, 2-(4-Fluoro-2,6-diisopropylphenyl)-N-((5-(2-hydroxypropan-2-yl)-1-methyl-1H-pyrazol-3-yl)sulfonyl)acetamide, ammonium salt], the pIC50 was 5.30 to 6.00.

Turning to `CC(C)n1ccc(S(=O)(=O)NC(=O)Nc2c3c(c(C#N)c4c2CCC4)CCC3)n1` [Example 37, N-((8-Cyano-1,2,3,5,6,7-hexahydro-s-indacen-4-yl)carbamoyl)-1-isopropyl-1H-pyrazole-3-sulfonamide], the pIC50 is 6.30 to 6.60.

As for `CC(C)n1ccc(S(=O)(=O)NC(=O)Nc2c3c(c(Br)c4c2CCC4)CCC3)n1` [Example 38, N-((8-Bromo-1,2,3,5,6,7-hexahydro-s-indacen-4-yl)carbamoyl)-1-isopropyl-1H-pyrazole-3-sulfonamide], the pIC50 was above 6.60.

Take `Cc1nn(C(C)C)cc1S(=O)(=O)NC(=O)Nc1c2c(cc3c1CCC3)CCC2` [Example 43, N-((1,2,3,5,6,7-Hexahydro-s-indacen-4-yl)carbamoyl)-1-isopropyl-3-methyl-1H-pyrazole-4-sulfonamide, sodium salt]: the pIC50 is 6.30 to 6.60.

Consider `O=C(Nc1c2c(cc3c1CCC3)CCC2)NS(=O)(=O)c1cnn(CC2CC2)c1` [Example 44, 1-(Cyclopropylmethyl)-N-((1,2,3,5,6,7-hexahydro-s-indacen-4-yl)carbamoyl)-1H-pyrazole-4-sulfonamide, sodium salt], for which the pIC50 was above 6.60.

On to `CC(C)c1cc(F)cc(C(C)C)c1NC(=O)NS(=O)(=O)c1cc(C(C)(C)O)n(C(C)C)n1` [Example 50, N-((4-Fluoro-2,6-diisopropylphenyl)carbamoyl)-5-(2-hydroxypropan-2-yl)-1-isopropyl-1H-pyrazole-3-sulfonamide], for which the pIC50 was 6.30 to 6.60.

Turning to `CC(C)c1cccc(C(C)C)c1NC(=O)NS(=O)(=O)c1ccn(C(C)C)n1` [Example 68, N-((2,6-Diisopropylphenyl)carbamoyl)-1-isopropyl-1H-pyrazole-3-sulfonamide, sodium salt], the pIC50 was 5.30 to 6.00.

Turning to `CC(C)c1cc(F)cc(C(F)(F)F)c1NC(=O)NS(=O)(=O)c1ccn(C(C)C)n1` [Example 70, N-((4-Fluoro-2-isopropyl-6-(trifluoromethyl)phenyl)carbamoyl)-1-isopropyl-1H-pyrazole-3-sulfonamide], the pIC50 was 5.00 to 5.30.

Turning to `CC(C)c1cc(-c2ccccc2)cc(C(C)C)c1NC(=O)NS(=O)(=O)c1ccn(C(C)C)n1` [Example 73, N-((3,5-Diisopropyl-[1,1′-biphenyl]-4-yl)carbamoyl)-1-isopropyl-1H-pyrazole-3-sulfonamide], the pIC50 is 5.00 to 5.30.

For the compound `CC(O)c1cc(S(=O)(=O)NC(=O)Nc2c3c(cc4c2CCC4)CCC3)nn1C` (stereo not drawn) [Example 74, N-((1,2,3,5,6,7-Hexahydro-s-indacen-4-yl)carbamoyl)-5-(1-hydroxyethyl)-1-methyl-1H-pyrazole-3-sulfonamide], the pIC50 was 6.00 to 6.30.

Turning to `CC(C)c1cc(C#N)cc(C(C)C)c1NC(=O)NS(=O)(=O)c1cnn(C(C)C)c1` [Example 75, N-((4-Cyano-2,6-diisopropylphenyl)carbamoyl)-1-isopropyl-1H-pyrazole-4-sulfonamide], the pIC50 was 5.30 to 6.00.

As to `CC(C)c1cccc(C(C)C)c1NC(=O)NS(=O)(=O)c1cnn(CC(F)(F)F)c1` [Example 76, N-((2,6-Diisopropylphenyl)carbamoyl)-1-(2,2,2-trifluoroethyl)-1H-pyrazole-4-sulfonamide], the pIC50 was 5.00 to 5.30.

For `CC(C)c1cc(F)cc(C(C)C)c1NC(=O)NS(=O)(=O)c1ccn(CC(F)(F)F)n1` [Example 78, N-((4-Fluoro-2,6-diisopropylphenyl)carbamoyl)-1-(2,2,2-trifluoroethyl)-1H-pyrazole-3-sulfonamide, sodium salt], the pIC50 was 5.30 to 6.00.

Turning to `CCOC(=O)c1cc(S(=O)(=O)NC(=O)Nc2c3c(cc4c2CCC4)CCC3)nn1C` [Example 79, Ethyl 3-(N-((1,2,3,5,6,7-hexahydro-s-indacen-4-yl)carbamoyl)sulfamoyl)-1-methyl-1H-pyrazole-5-carboxylate], the pIC50 was 6.00 to 6.30.

As for `Cc1nn(C)cc1S(=O)(=O)NC(=O)Nc1c2c(cc3c1CCC3)CCC2` [Example 80, N-((1,2,3,5,6,7-Hexahydro-s-indacen-4-yl)carbamoyl)-1,3-dimethyl-1H-pyrazole-4-sulfonamide, sodium salt], the pIC50 was 6.00 to 6.30.

With `CC(C)c1cccc(O[C@@H]2CCOC2)c1NC(=O)NS(=O)(=O)c1ccn(C(C)C)n1` [Example 85, (R)-1-Isopropyl-N-((2-isopropyl-6-((tetrahydrofuran-3-yl)oxy)phenyl)carbamoyl)-1H-pyrazole-3-sulfonamide], the pIC50 is 5.00 to 5.30.

The record behind these values is patent US20220106289A1, “NLRP3 INHIBITORS” (INFLAZOME LIMITED, priority 2018, published 2022).
